Source: patent US8507509B2, “Saturated and insaturated bi- or tricyclic aryloxyacetamine derivatives and their use as fungicides” (Syngenta Crop Protection LLC, priority 2007, dated 2013)
Like-named read-outs stand apart in the source and are kept apart here.

Columns and labels:
[1] = tested on: Erysiphe graminis f.sp. tritici; assay: Erysiphe graminis f.sp. tritici (wheat powdery mildew), wheat leaf segment assay, preventive; type: in vivo; details: Blumeria graminis, foliar, 96 h, read-out: control of fungal infection, Etysiphe graminis f.sp. tritici
Pythium ultimum = Pythium ultimum (Damping off), liquid culture growth inhibition in potato dextrose broth; type: cell-based; details: Globisporangium ultimum, read-out: control of fungal infection, Pythium ultimum
Plasmopara viticola = Plasmopara viticola (downy mildew of grapevine), grapevine leaf disk assay, preventive; type: in vivo; details: foliar, 168 h, read-out: control of fungal infection, Plasmopara viticola
Fusarium culmorum = Fusarium culmorum (root rot), liquid culture growth inhibition in nutrient broth; type: cell-based; details: PDB broth, 24 C, inhibition of growth determined photometrically after 48 hrs, read-out: control of fungal infection, Fusarium culmorum
How it was run: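 Fusarium culmorum conidia from cryogenic storage were mixed into potato dextrose broth and added to compound pre-dispensed from DMSO (diluted in 0.025% Tween20). Incubated at 24 C in the dark; growth inhibition read photometrically after 48 hrs.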

Phytophthora infestans = assay: whole plant or invertebrate; type: in vivo; details: in Solanum lycopersicum, foliar, 96 h, read-out: control of fungal infection, Phytophthora infestans
Septoria tritici = Septoria tritici (leaf blotch), liquid culture growth inhibition in nutrient broth; type: cell-based; details: Zymoseptoria tritici, read-out: control of fungal infection, Septoria tritici
Botrytis cinerea = Botrytis cinerea (grey mould), bean leaf disk assay, preventive; type: in vivo; details: foliar, 96 h, read-out: control of fungal infection, Botrytis cinerea
Septoria nodorum = Septoria nodorum (wheat glume blotch), wheat leaf segment assay, preventive; type: in vivo; details: Parastagonospora nodorum, foliar, 96 h, read-out: control of fungal infection, Septoria nodorum
[2] = tested on: Puccinia recondita f.sp. tritici; assay: Puccinia recondita f.sp. tritici (wheat brown rust), wheat leaf segment assay, preventive; type: in vivo; details: foliar, 216 h, read-out: control of fungal infection, Puccinia recondite f.sp. tritici
[3] = 200 ppm, wheat leaf segments, assessed four days after inoculation
[4] = 20 ppm, potato dextrose broth, 24° C., inhibition of growth determined photometrically after 48 hours
[5] = 200 ppm, grapevine leaf disks, assessed seven days after inoculation
[6] = 200 ppm, PDB broth, 24 C, inhibition of growth determined photometrically after 72 hrs
[7] = 200 ppm, bean leaf disks, assessed four days after inoculation

Work on CON=CC(C)(C#N)NC(=O)C(Oc1cc(C)c2ncc(Br)cc2c1)SC (centres unmarked) [Compound No. 54, 2-(3-Bromo-8-methyl-quinolin-6-yloxy)-N-(1-cyano-2-methoxyimino-1-methyl-ethyl)-2-methylsulfanyl-acetamide] yielded a pest or weed control at 200 ppm [1, 3] of at least 60%, an inhibition of growth at 20 ppm (Pythium ultimum; [4]) of at least 60% and a pest or weed control at 200 ppm (Plasmopara viticola; [5]) of at least 60%. The inhibition of growth at 200 ppm (Fusarium culmorum) was at least 60%, the melting point was 156 to 159 °C and the pest or weed control at 200 ppm (Phytophthora infestans) was at least 60%. It also gave an inhibition of growth at 200 ppm (Septoria tritici; [6]) of at least 60%.
Work on CCC(Oc1ccc2ncc(Br)cc2c1)C(=O)NC(C)(C#N)C=NOC (centres unmarked) [Compound No. 60, 2-(3-Bromo-quinolin-6-yloxy)-N-(1-cyano-2-methoxyimino-1-methyl-ethyl)-butyramide] yielded an inhibition of growth at 20 ppm (Pythium ultimum; [4]) of at least 60%, a pest or weed control at 200 ppm (Botrytis cinerea; [7]) of at least 60% and a melting point of 152 to 155 °C. It also gave a pest or weed control at 200 ppm (Phytophthora infestans) of at least 60% and an inhibition of growth at 200 ppm (Septoria tritici; [6]) of at least 60%.
With C#Cc1cnc2ccc(OC(OC)C(=O)NC(C)(C)C=NOC)cc2c1 (centres unmarked) [Compound No. 76, 2-(3-Ethynyl-quinolin-6-yloxy)-2-methoxy-N-(2-methoxyimino-1,1-dimethyl-ethyl)-acetamide] the pest or weed control at 200 ppm [1] was at least 60%, the inhibition of growth at 20 ppm (Pythium ultimum; 48 h) was at least 60% and the pest or weed control at 200 ppm (Septoria nodorum) was at least 60%. It also gave a pest or weed control at 200 ppm (Plasmopara viticola) of at least 60%, a pest or weed control at 200 ppm [2] of at least 60% and a pest or weed control at 200 ppm (Botrytis cinerea) of at least 60%. For the same compound, the inhibition of growth at 200 ppm (Fusarium culmorum) was at least 60%, the pest or weed control at 200 ppm (Phytophthora infestans) was at least 60% and the inhibition of growth at 200 ppm (Septoria tritici; 72 h) was at least 60%.
With CON=CC(C)(C)NC(=O)C(Oc1cc(Cl)c2ccsc2c1)SC (centres unmarked) [Compound No. 81, 2-(4-Chloro-benzo[b]thiophen-6-yloxy)-N-(2-methoxyimino-1,1-dimethyl-ethyl)-2-methylsulfanyl-acetamide] the pest or weed control at 200 ppm (Plasmopara viticola; [5]) was at least 60%, the pest or weed control at 200 ppm (Botrytis cinerea; [7]) was at least 60% and the melting point was 120 to 122 °C. It also gave an inhibition of growth at 200 ppm (Septoria tritici; [6]) of at least 60%.
CON=CC(C)(C)NC(=O)C(Oc1ccc2ocnc2c1)SC (centres unmarked) [Compound No. 88, 2-(benzooxazol-5-yloxy)-N-(2-methoxyimino-1,1-dimethyl-ethyl)-2-methylsulfanyl-acetamide] gave an inhibition of growth at 20 ppm (Pythium ultimum; [4]) of at least 60% and a melting point of 95 to 96 °C.
CON=CC(C)(C)NC(=O)C(Oc1cc(Cl)c2ncc(Cl)cc2c1)SC (centres unmarked) [Compound No. 90, 2-(3,8-Dichloro-quinolin-6-yloxy)-N-(2-methoxyimino-1,1-dimethyl-ethyl)-2-methylsulfanyl-acetamide] showed a pest or weed control at 200 ppm [1, 3] of at least 60%, an inhibition of growth at 20 ppm (Pythium ultimum; [4]) of at least 60% and a pest or weed control at 200 ppm (Plasmopara viticola; [5]) of at least 60%. The pest or weed control at 200 ppm (Botrytis cinerea; [7]) was at least 60%, the melting point was 158 to 161 °C and the inhibition of growth at 200 ppm (Septoria tritici; [6]) was at least 60%.
With CON=CC(C)(C)NC(=O)C(Oc1cc(C)c2ncncc2c1)SC (centres unmarked) [Compound No. 91, N-(2-Methoxyimino-1,1-dimethyl-ethyl)-2-(8-methyl-quinazolin-6-yloxy)-2-methylsulfanyl-acetamide] the inhibition of growth at 20 ppm (Pythium ultimum; [4]) was at least 60%, the pest or weed control at 200 ppm (Plasmopara viticola; [5]) was at least 60% and the pest or weed control at 200 ppm (Botrytis cinerea; [7]) was at least 60%. It also gave a melting point of 109 to 112 °C and a pest or weed control at 200 ppm (Phytophthora infestans) of at least 60%.
With C#Cc1cnc2ccc(OC(SC)C(=O)NC(C)(C)CC=NOC)cc2c1 (centres unmarked) [Compound No. 95, 2-(3-Ethynyl-quinolin-6-yloxy)-N-(3-methoxyimino-1,1-dimethyl-propyl)-2-methylsulfanyl-acetamide] the pest or weed control at 200 ppm [1, 3] was at least 60%, the inhibition of growth at 20 ppm (Pythium ultimum; [4]) was at least 60% and the pest or weed control at 200 ppm (Septoria nodorum; [3]) was at least 60%. It also gave a pest or weed control at 200 ppm (Plasmopara viticola; [5]) of at least 60%, a pest or weed control at 200 ppm ([2]; 200 ppm, wheat leaf segments, assessed nine days after inoculation) of at least 60% and a pest or weed control at 200 ppm (Botrytis cinerea; [7]) of at least 60%. The inhibition of growth at 200 ppm (Fusarium culmorum) was at least 60%, the pest or weed control at 200 ppm (Phytophthora infestans) was at least 60% and the inhibition of growth at 200 ppm (Septoria tritici; [6]) was at least 60%.
